Assays:
human TRPC5 [1] = molecular target: T1, human TRPC5 (Homo sapiens, UniProt Q9UL62); assay: FLIPR calcium assay, inhibition of riluzole-activated TRPC5 calcium response; format: cell-based; conditions: ICLN-1633 cells; riluzole 30 μM stimulation; Fluo-4 calcium response; read-out: Inhibitor Potency Range (FLIPR)
T1 construct: expressed in transfected cells
T1 sequence (Q9UL62 1-973): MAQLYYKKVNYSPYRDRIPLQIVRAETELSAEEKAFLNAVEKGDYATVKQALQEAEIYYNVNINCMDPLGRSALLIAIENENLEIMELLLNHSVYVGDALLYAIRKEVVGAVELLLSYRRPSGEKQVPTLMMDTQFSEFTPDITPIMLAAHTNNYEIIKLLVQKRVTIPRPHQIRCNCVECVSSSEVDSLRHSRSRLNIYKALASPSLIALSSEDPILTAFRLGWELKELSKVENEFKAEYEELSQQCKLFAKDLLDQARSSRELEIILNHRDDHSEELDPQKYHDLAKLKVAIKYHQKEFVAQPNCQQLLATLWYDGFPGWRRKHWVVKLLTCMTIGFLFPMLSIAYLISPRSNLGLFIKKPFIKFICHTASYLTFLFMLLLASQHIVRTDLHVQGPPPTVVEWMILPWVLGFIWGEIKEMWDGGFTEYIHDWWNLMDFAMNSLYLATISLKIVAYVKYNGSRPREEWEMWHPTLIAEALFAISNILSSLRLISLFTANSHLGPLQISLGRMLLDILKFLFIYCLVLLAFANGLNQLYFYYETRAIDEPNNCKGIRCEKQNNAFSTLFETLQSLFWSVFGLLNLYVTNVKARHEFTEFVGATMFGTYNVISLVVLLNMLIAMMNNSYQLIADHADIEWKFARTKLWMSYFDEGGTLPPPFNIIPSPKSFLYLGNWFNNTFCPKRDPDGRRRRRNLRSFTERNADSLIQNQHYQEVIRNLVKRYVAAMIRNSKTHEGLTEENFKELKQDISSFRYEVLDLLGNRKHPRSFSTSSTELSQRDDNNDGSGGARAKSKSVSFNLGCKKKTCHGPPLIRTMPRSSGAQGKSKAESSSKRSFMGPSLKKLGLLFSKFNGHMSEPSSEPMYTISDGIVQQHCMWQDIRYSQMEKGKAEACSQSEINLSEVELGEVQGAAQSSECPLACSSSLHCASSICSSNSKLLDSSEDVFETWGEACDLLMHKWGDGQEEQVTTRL
Description: (§1) ICLN-1633 cells (HEK-TREx hTRPC5) expressing TRPC5 were generated as follows. Commercially available HekTrex-293 cells were seeded at 0.7×10^6 cells/well in a 1×6-well plate 24 hrs prior to transfection using 2 mL cell growth media containing no antibiotics (1× DMEM/high glucose (Hyclone #SH30022.02); 10% fetal bovine serum (Sigma) 2 mM sodium pyruvate, 10 mM HEPES). The human TRPC5 coding sequence (NM_012471 with a silent T478C mutation) was cloned into pcDNA5/TO (Invitrogen; Cat No. V103320) using hygromycin as the resistance gene and the plasmid (SEQ ID NO:1) propagated using T-Rex-293 cells (Invitrogen; Cat No. R71007) following manufacturer's directions. On day 2, 2 μg of plasmid DNA plus 6 μl of Xtreme-GENE HP reagent in Optimem (200 μl total volume) was prepared and incubated for 15 min at room temperature. This plasmid solution was then gently overlayed dropwise onto each well and the plate was gently swirled to mix complex with the media for approximately 30 seconds. Transfected cells were incubated at 37° C. in a 10% CO2 incubator for 24 hrs. The transfected cells were harvested and transferred into 2×150 mm dishes containing cell growth media with no antibiotics at 37° C.
(§2) Compounds were made up to, or supplied as a 10 mM stock solution generally using DMSO as the vehicle. 10-point dose response curves were generated using the Echo-550 acoustic dispenser. Compound source plates were made by serially diluting compound stocks to create 10 mM, 1 mM, and 0.1 mM solutions in DMSO into Echo certified LDV plates. The Echo then serially spotted 100% DMSO stock solutions into source dose response plates to generate a 4-fold dilution scheme. 100% DMSO was added to the spotted dose response plates to bring the final volume to 5 μl. 300 nl of the dose response stock plate was then spotted into pre-incubation and stimulation assay plates. 50 μl of pre-incubation buffer and 100 μl of stimulation buffer was then added to the plates resulting in a final assay test concentration range of 30 μM to 0.0001 μM with a final DMSO concentration of 0.3%.
(§3) Human ICLN-1633 cells expressing were plated onto 384 well, black poly-D-lysine-coated microplates and maintained in TRPC5 growth media the day prior to use for experiments. TRPC5 expression was induced by the application of 1 μg/mL tetracycline at the time of plating. Media was removed from the plates and 10 μl of 4 μM of Fluo-4 AM (mixed with equal volume of Pluronic F-127) in Earls's Balanced Salt Solution (EBSS) was added to the cells. Cells were incubated at room temperature, protected from light, for 60-90 minutes. After the incubation period, the dye was removed and replaced with 10 μl of EBSS. Cell, pre-incubation and stimulation plates were loaded onto the FLIPR-II and the assay was initiated. The FLIPR measured a 10 second baseline and then added 10 μl of 2× compounds (or controls). Changes in fluorescence were monitored for an additional 5 minutes. After the 5 minute pre-incubation, 20 μl of 2× riluzole (with 1× compound or controls) was added to the cell plate. The final riluzole stimulation concentration in the assay was 30 μM. After the riluzole addition, changes in fluorescence were monitored for an additional 5 minutes. Reduction in the riluzole-activated calcium response relative to control wells was reported as inhibition. A compound-mediated increase in the riluzole response relative to control riluzole response (no test agent present) with no enhancement of calcium entry during preincubation phase was reported as an agonist response.
Compound inhibition of TRPC5 calcium response was determined as follows. After the riluzole addition, fluorescence was monitored for a 5-minute period. For inhibition, the maximum relative fluorescence response (minus the control response of 1 μM of an internal control compound known to maximally block TRPC5 calcium response, the “REF INHIB” in the formula below) was captured and exported from the FLIPR. […]

human TRPC5 [2] = molecular target: T1, human TRPC5; assay: FLIPR calcium assay, compound activation (agonism) of TRPC5 calcium response; format: cell-based; parameters: key to Agonist Potency Range (FLIPR): A=0.001-1 μM; B=1-10 μM; C=>1 μM; D=tested with a positive result for agonism, but EC50 not calculated; conditions: ICLN-1633 cells, Fluo-4 calcium response; for EC50: read-out: Agonist Potency Range (FLIPR)
Description: as §1, §2, §3
Compound activation (agonism) of TRPC5 calcium response was determined as follows. After the initial compound addition, fluorescence was monitored for 5 minutes. The maximum relative fluorescence response (minus the control response of EBSS buffer alone) is captured and exported from the FLIPR. Compound activation is calculated using the following formula: […]

Compound	IC50 (human TRPC5 [1]) [µM]	Agonist Potency Range (FLIPR) (human TRPC5 [2])	EC50 (human TRPC5 [2]) [µM]
C[C@@H]1C(=O)N(C)c2nc(Oc3cccc(F)c3)n(Cc3ccc(Cl)cc3)c2C(=O)N1CCCO (single isomer, unassigned) [Compound 19]	> 10	D	–
O=C1c2c(nc(Oc3cccc(OC(F)(F)F)c3)n2Cc2ccc(Cl)cc2)N2CCC[C@@H]2C(=O)N1CCCO (single isomer, unassigned) [Compound 23]	0.001 to 1	–	> 10
O=C1c2c(nc(Oc3cccc(OC(F)(F)F)c3)n2Cc2ccc(Cl)cc2)N2CCC[C@H]2C(=O)N1CCCO (single isomer, unassigned) [Compound 22]	> 10	–	1 to 10
CN1CC(=O)N(CCCO)C(=O)c2c1nc(Oc1cccc(OC(F)(F)F)c1)n2Cc1ccc(Cl)cc1 [Compound 21, 1-[(4-chlorophenyl)methyl]-7-(3-hydroxypropyl)-4-methyl-2-[3-(trifluoromethoxy)phenoxy]-1H,4H,5H,6H,7H,8H-imidazo[4,5-e][1,4]diazepine-6,8-dione]	0.001 to 1	–	> 10

From patent US12466834B2, “Imidazodiazepinediones and methods of use thereof” (GFB (ABC), LLC, priority 2018, dated 2025)
